According to ChEMBL document CHEMBL4311974, “Synthesis of coumarin-sulfonamide derivatives and determination of their cytotoxicity, carbonic anhydrase inhibitory and molecular docking studies” (Eur J Med Chem, 2019):

How the values were obtained:
[1] = system: HEK-293T; experiment: cells; format: ADME, cell-based; conditions: Homo sapiens, 24 h
Description: Cytotoxicity in HEK293T cells assessed as reduction in cell viability incubated for 24 hrs under hypoxic condition by MTT assay

[2] = system: HT-29; experiment: cells; format: functional, cell-based; conditions: Homo sapiens, HT-29, 24 h
Description: Cytotoxicity in human HT-29 cells assessed as reduction in cell viability incubated for 24 hrs under hypoxic condition by MTT assay

[3] = molecular target: Carbonic anhydrase 9 (Homo sapiens, UniProt Q16790)
Description: Inhibition of human carbonic anhydrase 9 incubated for 10 mins prior to testing measured for 5 to 10 secs by phenol red-based stopped-flow CO2 hydration assay

[4] = molecular target: Carbonic anhydrase 1 (Homo sapiens, UniProt P00915)
Carbonic anhydrase 1, sequence (P00915 whole entry): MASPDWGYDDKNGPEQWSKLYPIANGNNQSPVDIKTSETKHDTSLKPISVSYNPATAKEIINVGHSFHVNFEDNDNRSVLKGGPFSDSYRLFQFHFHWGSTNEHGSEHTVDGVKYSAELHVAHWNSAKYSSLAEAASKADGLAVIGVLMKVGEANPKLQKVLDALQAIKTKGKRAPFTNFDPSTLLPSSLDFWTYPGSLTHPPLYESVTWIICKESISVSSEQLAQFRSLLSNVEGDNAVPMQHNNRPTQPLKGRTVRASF
Description: Inhibition of human carbonic anhydrase 1 incubated for 10 mins prior to testing measured for 5 to 10 secs by phenol red-based stopped-flow CO2 hydration assay

[5] = molecular target: Carbonic anhydrase 2 (Homo sapiens, UniProt P00918)
Description: Inhibition of human carbonic anhydrase 2 incubated for 10 mins prior to testing measured for 5 to 10 secs by phenol red-based stopped-flow CO2 hydration assay

[6] = molecular target: Carbonic anhydrase 12 (Homo sapiens, UniProt O43570)
Carbonic anhydrase 12, sequence (O43570 whole entry): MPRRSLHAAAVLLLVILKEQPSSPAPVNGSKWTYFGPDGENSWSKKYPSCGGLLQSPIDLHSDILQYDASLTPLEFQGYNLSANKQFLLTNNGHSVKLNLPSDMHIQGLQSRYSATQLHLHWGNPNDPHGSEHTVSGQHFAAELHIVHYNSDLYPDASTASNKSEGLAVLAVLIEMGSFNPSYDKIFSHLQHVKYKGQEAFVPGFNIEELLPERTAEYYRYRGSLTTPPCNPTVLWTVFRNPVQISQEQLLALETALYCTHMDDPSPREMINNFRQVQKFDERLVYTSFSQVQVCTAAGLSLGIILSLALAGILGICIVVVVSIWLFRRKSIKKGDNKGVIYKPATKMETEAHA
Description: Inhibition of human carbonic anhydrase 12 incubated for 10 mins prior to testing measured for 5 to 10 secs by phenol red-based stopped-flow CO2 hydration assay

IC50 [2] [µM]	Ki [3] [µM]	Ki [4] [µM]	Ki [5] [µM]	Ki [6] [µM]	SMILES	IC50 [1] [µM]
81.3	1.19	> 10			C#CCOc1c(/C=N/Cc2ccc(S(N)(=O)=O)cc2)cccc1OC	135
125	0.169	> 10			NS(=O)(=O)c1ccc(C/N=C/c2ccc(OCc3cn(CCCOc4ccc5ccc(=O)oc5c4)nn3)cc2)cc1	
65.4	0.133	> 10	> 10	> 10	COc1cc(C=O)ccc1OCc1cn(CCCOc2ccc3ccc(=O)oc3c2)nn1	
13.3	1.17	> 10	> 10	> 10	COc1cccc(C=O)c1OCc1cn(CCCOc2ccc3ccc(=O)oc3c2)nn1	30.4
7.47	0.196	> 10	> 10	> 10	O=Cc1cc(Br)ccc1OCc1cn(CCCOc2ccc3ccc(=O)oc3c2)nn1	6.08
9.03	0.158	> 10	> 10	> 10	CCN(CC)c1ccc(C=O)c(OCc2cn(CCCOc3ccc4ccc(=O)oc4c3)nn2)c1	19.2
17	0.0455	> 10			NS(=O)(=O)c1ccc(C/N=C/c2c(OCc3cn(CCCOc4ccc5ccc(=O)oc5c4)nn3)ccc3ccccc23)cc1	119
14.3	0.187	> 10			NS(=O)(=O)c1ccc(C/N=C/c2ccccc2OCc2cn(CCCOc3ccc4ccc(=O)oc4c3)nn2)cc1	13.9
18.9	0.128	> 10			O=Cc1ccccc1OCc1cn(CCCOc2ccc3ccc(=O)oc3c2)nn1	13.7
104	2.03	> 10			C#CCOc1cccc(/C=N/Cc2ccc(S(N)(=O)=O)cc2)c1	
46.1	1.09	> 10			C#CCOc1ccc2ccccc2c1/C=N/Cc1ccc(S(N)(=O)=O)cc1	
129	0.192	> 10	> 10		O=Cc1cccc(OCc2cn(CCCOc3ccc4ccc(=O)oc4c3)nn2)c1	
45.7	0.19	> 10			C#CCOc1ccc(Br)cc1/C=N/Cc1ccc(S(N)(=O)=O)cc1	
136	0.0812	> 10			C#CCOc1ccc(/C=N/Cc2ccc(S(N)(=O)=O)cc2)cc1OC	537
23.3	2.18	> 10			CCN(CC)c1ccc(/C=N/Cc2ccc(S(N)(=O)=O)cc2)c(OCc2cn(CCCOc3ccc4ccc(=O)oc4c3)nn2)c1	29.5
149	0.189	> 10	> 10	> 10	O=Cc1c(OCc2cn(CCCOc3ccc4ccc(=O)oc4c3)nn2)ccc2ccccc12	
53.6	0.137	> 10	> 10	> 10	O=Cc1cc([N+](=O)[O-])ccc1OCc1cn(CCCOc2ccc3ccc(=O)oc3c2)nn1	
14.1	0.231	> 10			C#CCOc1ccc(/C=N/Cc2ccc(S(N)(=O)=O)cc2)cc1	398
100	0.171	> 10	> 10	> 10	O=Cc1ccc(OCc2cn(CCCOc3ccc4ccc(=O)oc4c3)nn2)cc1	
62.8	0.198	> 10			C#CCOc1cc(N(CC)CC)ccc1/C=N/Cc1ccc(S(N)(=O)=O)cc1	
31.6	0.76	> 10			COc1cc(/C=N/Cc2ccc(S(N)(=O)=O)cc2)ccc1OCc1cn(CCCOc2ccc3ccc(=O)oc3c2)nn1	
31	1.07	> 10			C#CCOc1ccccc1/C=N/Cc1ccc(S(N)(=O)=O)cc1	
34.8	0.212	> 10			C#CCOc1ccc([N+](=O)[O-])cc1/C=N/Cc1ccc(S(N)(=O)=O)cc1	
107	0.955	> 10			NS(=O)(=O)c1ccc(C/N=C/c2cccc(OCc3cn(CCCOc4ccc5ccc(=O)oc5c4)nn3)c2)cc1	
17.7	0.16	> 10			NS(=O)(=O)c1ccc(C/N=C/c2cc(Br)ccc2OCc2cn(CCCOc3ccc4ccc(=O)oc4c3)nn2)cc1	8.25
52.5	1.48	> 10			COc1cccc(/C=N/Cc2ccc(S(N)(=O)=O)cc2)c1OCc1cn(CCCOc2ccc3ccc(=O)oc3c2)nn1	
117	0.857	> 10			NS(=O)(=O)c1ccc(C/N=C/c2cc([N+](=O)[O-])ccc2OCc2cn(CCCOc3ccc4ccc(=O)oc4c3)nn2)cc1	
5.38					COc1cccc2c1C(=O)c1c(O)c3c(c(O)c1C2=O)C[C@@](O)(C(=O)CO)C[C@@H]3O[C@H]1C[C@H](N)[C@H](O)[C@H](C)O1 [DOXORUBICIN]	1.05
